The data set in a line: Emission intensity of fluorophores exposed to different excitation wavelengths. Type of data set: physicochemical. As to conditions: shift in excitation wavelength. An excerpt: FIGS. 10A and 10B present graphs of emission intensities for two separate fluorphores, mPlum and cy5, exposed to different excitation wavelengths. As shown in FIG. 10A the shift in excitation wavelength yielded a decrease in emission intensity of about 96% for fluorphore 1 which was mPlum.

For the molecule `CCN1/C(=C/C=C/C=C/C2=[N+](CCCCCC(=O)O)c3ccc(S(=O)(=O)O)cc3C2(C)C)C(C)(C)c2cc(S(=O)(=O)[O-])ccc21` [cy5], the “increase in emission intensity” value is given as “about 156%”.

With mPlum, the “decrease in emission intensity” value (FIG. 10A) is recorded as “about 96%”.

Values taken from patent US10813554B2, “Medical imaging device and methods of use” (Lumicell, Inc., priority 2013, dated 2020).
